Data from ChEMBL document CHEMBL1649268, “Comparative in vitro activity profile of oritavancin against recent gram-positive clinical isolates” (2009).

Experiments:
Enterococcus faecium [1] = test: Antimicrobial activity against vancomycin-susceptible Enterococcus faecium clinical isolates assessed as resistant isolates by broth microdilution method; assay type: functional
Enterococcus faecalis [2] = test: Antimicrobial activity against vancomycin-susceptible Enterococcus faecalis clinical isolates assessed as percent susceptible isolates by broth microdilution method; assay type: functional
[3] = Antimicrobial activity against Streptococcus Group C clinical isolates assessed as resistant isolates by broth microdilution method; assay type: functional, Streptococcus sp. 'group C'
Enterococcus faecium [4] = test: Antimicrobial activity against Enterococcus faecium expressing VanA gene clinical isolates by broth microdilution method; assay type: functional
Streptococcus pneumoniae [5] = test: Antimicrobial activity against penicillin-susceptible Streptococcus pneumoniae clinical isolates assessed as resistant isolates by broth microdilution method; assay type: functional
Enterococcus faecium [6] = test: Antimicrobial activity against Enterococcus faecium expressing VanB gene clinical isolates assessed as resistant isolates by broth microdilution method; assay type: functional
Enterococcus faecium [7] = test: Antimicrobial activity against vancomycin-nonsusceptible Enterococcus faecium clinical isolates by broth microdilution method; assay type: functional
Enterococcus faecalis [8] = test: Antimicrobial activity against Enterococcus faecalis clinical isolates assessed as resistant isolates by broth microdilution method; assay type: functional
Enterococcus faecium [9] = test: Antimicrobial activity against vancomycin-nonsusceptible Enterococcus faecium clinical isolates assessed as percent susceptible isolates by broth microdilution method; assay type: functional
[10] = Antimicrobial activity against erythromycin-nonsusceptible Streptococcus Group C clinical isolates assessed as resistant isolates by broth microdilution method; assay type: functional, Streptococcus sp. 'group C'
Enterococcus faecium [11] = test: Antimicrobial activity against Enterococcus faecium expressing VanA gene clinical isolates assessed as resistant isolates by broth microdilution method; assay type: functional
Enterococcus faecium [12] = test: Antimicrobial activity against Enterococcus faecium expressing VanA gene clinical isolates assessed as percent susceptible isolates by broth microdilution method; assay type: functional
Enterococcus faecalis [13] = test: Antimicrobial activity against Enterococcus faecalis expressing VanB gene clinical isolates assessed as resistant isolates by broth microdilution method; assay type: functional
Streptococcus pneumoniae [14] = test: Antimicrobial activity against penicillin-resistant Streptococcus pneumoniae clinical isolates assessed as resistant isolates by broth microdilution method; assay type: functional
Enterococcus faecium [15] = test: Antimicrobial activity against Enterococcus faecium expressing VanB gene clinical isolates by broth microdilution method; assay type: functional
Enterococcus faecalis [16] = test: Antimicrobial activity against vancomycin-susceptible Enterococcus faecalis clinical isolates assessed as resistant isolates by broth microdilution method; assay type: functional
Streptococcus pyogenes = test: Antimicrobial activity against Streptococcus pyogenes clinical isolates assessed as resistant isolates by broth microdilution method; assay type: functional
Enterococcus faecalis [17] = test: Antimicrobial activity against vancomycin-nonsusceptible Enterococcus faecalis clinical isolates assessed as percent susceptible isolates by broth microdilution method; assay type: functional
[18] = Antimicrobial activity against erythromycin-nonsusceptible Streptococcus Group G clinical isolates assessed as resistant isolates by broth microdilution method; assay type: functional, Streptococcus sp. 'group G'
Enterococcus faecium [19] = test: Antimicrobial activity against vancomycin-nonsusceptible Enterococcus faecium clinical isolates assessed as resistant isolates by broth microdilution method; assay type: functional
Enterococcus faecalis [20] = test: Antimicrobial activity against Enterococcus faecalis expressing VanB gene clinical isolates by broth microdilution method; assay type: functional
Enterococcus faecalis [21] = test: Antimicrobial activity against vancomycin-nonsusceptible Enterococcus faecalis clinical isolates assessed as resistant isolates by broth microdilution method; assay type: functional
Streptococcus pneumoniae [22] = test: Antimicrobial activity against Streptococcus pneumoniae clinical isolates assessed as resistant isolates by broth microdilution method; assay type: functional
Enterococcus faecalis [23] = test: Antimicrobial activity against Enterococcus faecalis expressing VanA gene clinical isolates assessed as percent susceptible isolates by broth microdilution method; assay type: functional
Enterococcus faecium [24] = test: Antimicrobial activity against Enterococcus faecium clinical isolates assessed as resistant isolates by broth microdilution method; assay type: functional
Enterococcus faecium [25] = test: Antimicrobial activity against Enterococcus faecium clinical isolates assessed as percent susceptible isolates by broth microdilution method; assay type: functional
Enterococcus faecium [26] = test: Antimicrobial activity against Enterococcus faecium clinical isolates by broth microdilution method; assay type: functional
[27] = Antimicrobial activity against erythromycin-susceptible Streptococcus Group C clinical isolates assessed as resistant isolates by broth microdilution method; assay type: functional, Streptococcus sp. 'group C'
Enterococcus faecium [28] = test: Antimicrobial activity against vancomycin-susceptible Enterococcus faecium clinical isolates assessed as percent susceptible isolates by broth microdilution method; assay type: functional
[29] = Antimicrobial activity against erythromycin-susceptible Streptococcus Group G clinical isolates assessed as resistant isolates by broth microdilution method; assay type: functional, Streptococcus sp. 'group G'

`C[C@H]1COc2c(N3CCN(C)CC3)c(F)cc3c(=O)c(C(=O)O)cn1c23.C[C@H]1COc2c(N3CCN(C)CC3)c(F)cc3c(=O)c(C(=O)O)cn1c23.O` [LEVOFLOXACIN] showed an Activity (Enterococcus faecium [1]) of 66%, an Activity (Enterococcus faecalis [2]) of 64.4% and an Activity [3] of 0%. The MIC90 (Enterococcus faecium [4]) was greater than 16 µg/mL, the “Percent of isolates resistant” value (Streptococcus pneumoniae [5]) was 0.5% and the Activity (Enterococcus faecium [6]) was 100%. It also gave an MIC90 (Enterococcus faecium [7]) greater than 16 µg/mL, an Activity (Enterococcus faecalis [8]) of 38.4% and an Activity (Enterococcus faecium [9]) of 0.2%. For the same molecule, the Activity [10] was 0%, the Activity (Enterococcus faecium [11]) was 99.8% and the Activity (Enterococcus faecium [12]) was 0.2%. For the same molecule, the Activity (Enterococcus faecalis [13]) was 100%, the “Percent of isolates resistant” value (Streptococcus pneumoniae [14]) was 0.7% and the MIC90 (Enterococcus faecium [15]) was greater than 16 µg/mL. It also gave an Activity (Enterococcus faecalis [16]) of 35.2%, an Activity (Streptococcus pyogenes) of 0.1% and an Activity (Enterococcus faecalis [17]) of 0%. The Activity [18] was 0%, the Activity (Enterococcus faecium [19]) was 99.8% and the MIC90 (Enterococcus faecalis [20]) was greater than 16 µg/mL. The Activity (Enterococcus faecalis [21]) was 100%, the Resistant isolates (Streptococcus pneumoniae [22]) was 0.9% and the Activity (Enterococcus faecalis [23]) was 0%. For the same molecule, the Activity (Enterococcus faecium [24]) was 85.3%, the Activity (Enterococcus faecium [25]) was 12.2% and the MIC90 (Enterococcus faecium [26]) was greater than 16 µg/mL. It also gave an Activity [27] of 0%, an Activity (Enterococcus faecium [28]) of 28.3% and an Activity [29] of 0%.
